Source: ChEMBL document CHEMBL5385866, “Switch type I to type II TRK inhibitors for combating clinical resistance induced by xDFG mutation for cancer therapy” (Eur J Med Chem, 2023)

Assays:
BaF3 [1] = assay: cells; settings: Mus musculus, BaF3, 72 h
Description: Antiproliferative activity against mouse BaF3 cells assessed as inhibition of cell growth incubated for 72 hrs by CCK8 assay

BaF3 [2] = assay: cells; settings: Mus musculus, BaF3, 72 h; remark: listed apart in the source
Description: Antiproliferative activity against mouse BaF3 cells harbouring CD74-TRKA G623R mutant assessed as inhibition of cell growth incubated for 72 hrs by CCK8 assay

BaF3 [3] = assay: cells; settings: Mus musculus, BaF3, 72 h; remark: listed apart in the source
Description: Antiproliferative activity against mouse BaF3 cells harbouring CD74-TRKA G595R mutant assessed as inhibition of cell growth incubated for 72 hrs by CCK8 assay

BaF3 [4] = assay: cells; settings: Mus musculus, BaF3, 72 h; remark: listed apart in the source
Description: Antiproliferative activity against mouse BaF3 cells harbouring CD74-TRKA assessed as inhibition of cell growth incubated for 72 hrs by CCK8 assay

BaF3 [5] = assay: cells; settings: Mus musculus, BaF3, 72 h; remark: listed apart in the source
Description: Antiproliferative activity against mouse BaF3 cells harbouring ETV6-TRKB assessed as inhibition of cell growth incubated for 72 hrs by CCK8 assay

BaF3 [6] = assay: cells; settings: Mus musculus, BaF3, 72 h; remark: listed apart in the source
Description: Antiproliferative activity against mouse BaF3 cells harbouring ETV6-TRKC assessed as inhibition of cell growth incubated for 72 hrs by CCK8 assay

BaF3 [7] = assay: cells; settings: Mus musculus, BaF3, 72 h; remark: listed apart in the source
[8] = molecular target: High affinity nerve growth factor receptor (Homo sapiens, UniProt P04629); assay: Inhibition of TRKA (unknown origin) using […] peptide as substrate incubated for 1 hr in presence of ATP by FRET based Z'-lyte assay
Chain of High affinity nerve growth factor receptor (Homo sapiens, UniProt P04629) (P04629 whole entry): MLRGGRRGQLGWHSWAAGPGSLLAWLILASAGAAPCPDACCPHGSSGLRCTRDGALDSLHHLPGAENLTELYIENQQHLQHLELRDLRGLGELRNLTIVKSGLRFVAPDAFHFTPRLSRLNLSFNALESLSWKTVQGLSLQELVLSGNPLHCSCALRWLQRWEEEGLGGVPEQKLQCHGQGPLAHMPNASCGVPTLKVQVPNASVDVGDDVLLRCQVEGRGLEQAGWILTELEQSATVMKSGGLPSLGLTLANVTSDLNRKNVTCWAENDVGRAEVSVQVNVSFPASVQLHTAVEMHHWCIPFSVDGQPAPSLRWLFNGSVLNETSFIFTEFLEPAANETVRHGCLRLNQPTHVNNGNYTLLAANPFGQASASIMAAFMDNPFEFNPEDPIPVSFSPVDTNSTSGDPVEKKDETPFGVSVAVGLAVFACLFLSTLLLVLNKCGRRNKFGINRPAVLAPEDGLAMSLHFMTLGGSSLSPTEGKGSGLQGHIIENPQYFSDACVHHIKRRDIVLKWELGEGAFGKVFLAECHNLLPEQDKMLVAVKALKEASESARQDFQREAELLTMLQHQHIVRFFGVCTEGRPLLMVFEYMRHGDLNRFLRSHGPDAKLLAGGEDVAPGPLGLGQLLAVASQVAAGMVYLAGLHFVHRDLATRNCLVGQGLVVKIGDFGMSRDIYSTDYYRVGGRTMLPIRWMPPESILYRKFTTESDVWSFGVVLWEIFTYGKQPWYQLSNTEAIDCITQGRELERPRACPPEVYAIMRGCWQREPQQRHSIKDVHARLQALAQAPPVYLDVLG

[9] = molecular target: NT-3 growth factor receptor (Homo sapiens, UniProt Q16288); assay: Inhibition of TRKC (unknown origin) using […] peptide as substrate incubated for 1 hr in presence of ATP by FRET based Z'-lyte assay
Chain of NT-3 growth factor receptor (Q16288 whole entry): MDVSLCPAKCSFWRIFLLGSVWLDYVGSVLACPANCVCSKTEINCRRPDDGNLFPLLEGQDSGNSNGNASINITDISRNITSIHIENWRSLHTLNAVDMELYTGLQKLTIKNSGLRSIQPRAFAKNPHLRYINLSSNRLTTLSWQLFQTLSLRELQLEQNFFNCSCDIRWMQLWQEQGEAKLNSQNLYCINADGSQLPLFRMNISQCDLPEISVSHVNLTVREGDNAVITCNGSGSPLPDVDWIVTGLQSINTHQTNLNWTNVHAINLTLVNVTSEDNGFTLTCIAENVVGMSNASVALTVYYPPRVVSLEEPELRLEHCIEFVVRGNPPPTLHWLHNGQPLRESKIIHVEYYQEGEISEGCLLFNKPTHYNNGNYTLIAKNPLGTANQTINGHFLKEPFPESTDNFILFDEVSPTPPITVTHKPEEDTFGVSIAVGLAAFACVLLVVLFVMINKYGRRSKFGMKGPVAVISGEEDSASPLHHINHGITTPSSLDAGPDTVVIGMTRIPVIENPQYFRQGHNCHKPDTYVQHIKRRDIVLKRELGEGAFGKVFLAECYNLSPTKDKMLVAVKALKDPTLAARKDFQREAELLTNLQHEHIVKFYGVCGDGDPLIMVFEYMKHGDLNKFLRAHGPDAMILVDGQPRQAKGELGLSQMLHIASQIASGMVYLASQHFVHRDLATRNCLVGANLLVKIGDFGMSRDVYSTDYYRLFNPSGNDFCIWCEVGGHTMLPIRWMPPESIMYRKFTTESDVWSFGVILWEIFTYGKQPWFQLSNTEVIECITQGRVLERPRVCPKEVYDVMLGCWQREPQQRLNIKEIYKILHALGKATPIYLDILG

[10] = molecular target: BDNF/NT-3 growth factors receptor (Homo sapiens, UniProt Q16620); assay: Inhibition of TRKB (unknown origin) using […] peptide as substrate incubated for 1 hr in presence of ATP by FRET based Z'-lyte assay
Chain of BDNF/NT-3 growth factors receptor (Q16620 whole entry): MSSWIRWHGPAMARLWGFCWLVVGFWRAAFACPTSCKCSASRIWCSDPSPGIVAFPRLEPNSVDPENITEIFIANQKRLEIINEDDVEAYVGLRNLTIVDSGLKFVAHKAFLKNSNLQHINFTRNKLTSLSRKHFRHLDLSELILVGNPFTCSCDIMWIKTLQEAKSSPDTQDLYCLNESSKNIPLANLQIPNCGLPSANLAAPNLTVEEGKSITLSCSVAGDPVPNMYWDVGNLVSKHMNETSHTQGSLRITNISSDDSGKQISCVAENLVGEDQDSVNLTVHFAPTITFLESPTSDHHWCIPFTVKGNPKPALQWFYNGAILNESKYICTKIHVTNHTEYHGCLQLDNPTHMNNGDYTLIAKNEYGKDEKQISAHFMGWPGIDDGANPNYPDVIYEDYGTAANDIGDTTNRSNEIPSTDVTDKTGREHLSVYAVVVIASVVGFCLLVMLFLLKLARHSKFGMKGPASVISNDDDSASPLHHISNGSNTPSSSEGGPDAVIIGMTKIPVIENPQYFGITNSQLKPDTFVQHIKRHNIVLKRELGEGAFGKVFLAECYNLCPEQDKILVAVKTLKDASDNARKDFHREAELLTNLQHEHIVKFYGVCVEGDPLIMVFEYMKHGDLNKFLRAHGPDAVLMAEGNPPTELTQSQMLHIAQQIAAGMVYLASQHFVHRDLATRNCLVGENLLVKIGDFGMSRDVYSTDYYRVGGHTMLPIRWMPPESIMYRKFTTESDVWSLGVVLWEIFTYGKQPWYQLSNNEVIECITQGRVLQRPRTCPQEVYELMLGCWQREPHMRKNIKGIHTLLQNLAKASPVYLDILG

[11] = molecular target: High affinity nerve growth factor receptor (Homo sapiens, UniProt P04629, G667C); assay: Inhibition of TRKA G667C mutant (unknown origin) using […] peptide as substrate incubated for 1 hr in presence of ATP by FRET based Z'-lyte assay
Chain of High affinity nerve growth factor receptor (Homo sapiens, UniProt P04629, G667C) (P04629 33-796 G667C limits assumed): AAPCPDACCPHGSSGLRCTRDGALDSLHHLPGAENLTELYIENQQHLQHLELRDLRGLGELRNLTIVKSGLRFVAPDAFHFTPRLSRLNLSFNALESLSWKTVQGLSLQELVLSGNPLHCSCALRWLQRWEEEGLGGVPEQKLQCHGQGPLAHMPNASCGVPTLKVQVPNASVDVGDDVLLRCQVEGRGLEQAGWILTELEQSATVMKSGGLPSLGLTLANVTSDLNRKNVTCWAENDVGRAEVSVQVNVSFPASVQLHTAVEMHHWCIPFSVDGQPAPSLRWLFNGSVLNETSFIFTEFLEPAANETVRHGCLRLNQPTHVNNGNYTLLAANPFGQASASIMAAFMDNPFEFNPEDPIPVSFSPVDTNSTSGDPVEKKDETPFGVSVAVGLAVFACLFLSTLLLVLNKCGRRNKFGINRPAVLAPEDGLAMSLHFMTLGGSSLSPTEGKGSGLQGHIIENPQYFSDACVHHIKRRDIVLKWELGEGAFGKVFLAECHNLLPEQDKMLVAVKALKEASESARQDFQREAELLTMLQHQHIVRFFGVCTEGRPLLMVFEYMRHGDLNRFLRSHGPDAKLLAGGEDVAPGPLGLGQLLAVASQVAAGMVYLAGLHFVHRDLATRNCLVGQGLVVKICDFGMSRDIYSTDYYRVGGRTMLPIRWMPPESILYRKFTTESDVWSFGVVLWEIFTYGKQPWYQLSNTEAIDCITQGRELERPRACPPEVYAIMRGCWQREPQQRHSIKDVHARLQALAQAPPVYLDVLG

BaF3 [12] = assay: Induction of apoptosis in mouse BaF3 cells harboring CD74-TRKA G667C mutant assessed as viable cells at 50 nM incubated 48 hrs by Annexin V-FITC/7-AAD staining based flow cytometric analysis (reference value: 89.60%); assay type: functional; settings: read-out: Activity
BaF3 [13] = assay: Induction of apoptosis in mouse BaF3 cells harboring CD74-TRKA G667C mutant assessed as viable cells at 10 nM incubated 48 hrs by Annexin V-FITC/7-AAD staining based flow cytometric analysis (reference value: 89.60%); assay type: functional; settings: read-out: Activity
BaF3 [14] = assay: Induction of apoptosis in mouse BaF3 cells harboring CD74-TRKA G667C mutant assessed as viable cells at 2 nM incubated 48 hrs by Annexin V-FITC/7-AAD staining based flow cytometric analysis (reference value: 89.60%); assay type: functional; settings: read-out: Activity
BaF3 [15] = assay: Induction of apoptosis in mouse BaF3 cells harboring CD74-TRKA G667C mutant assessed as viable cells at 0.4 nM incubated 48 hrs by Annexin V-FITC/7-AAD staining based flow cytometric analysis (reference value: 89.60%); assay type: functional; settings: read-out: Activity
BaF3 [16] = assay: Induction of apoptosis in mouse BaF3 cells harboring CD74-TRKA assessed as viable cells at 500 nM incubated 48 hrs by Annexin V-FITC/7-AAD staining based flow cytometric analysis (reference value: 89.30%); assay type: functional; settings: read-out: Activity
BaF3 [17] = assay: Induction of apoptosis in mouse BaF3 cells harboring CD74-TRKA assessed as viable cells at 100 nM incubated 48 hrs by Annexin V-FITC/7-AAD staining based flow cytometric analysis (reference value: 89.30%); assay type: functional; settings: read-out: Activity
BaF3 [18] = assay: Induction of apoptosis in mouse BaF3 cells harboring CD74-TRKA assessed as viable cells at 20 nM incubated 48 hrs by Annexin V-FITC/7-AAD staining based flow cytometric analysis (reference value: 89.30%); assay type: functional; settings: read-out: Activity
BaF3 [19] = assay: Induction of apoptosis in mouse BaF3 cells harboring CD74-TRKA assessed as viable cells at 4 nM incubated 48 hrs by Annexin V-FITC/7-AAD staining based flow cytometric analysis (reference value: 89.30%); assay type: functional; settings: read-out: Activity
[20] = molecular target: Proto-oncogene tyrosine-protein kinase receptor Ret (Homo sapiens, UniProt P07949); assay: Inhibition of RET (unknown origin)
Chain of Proto-oncogene tyrosine-protein kinase receptor Ret (P07949 whole entry): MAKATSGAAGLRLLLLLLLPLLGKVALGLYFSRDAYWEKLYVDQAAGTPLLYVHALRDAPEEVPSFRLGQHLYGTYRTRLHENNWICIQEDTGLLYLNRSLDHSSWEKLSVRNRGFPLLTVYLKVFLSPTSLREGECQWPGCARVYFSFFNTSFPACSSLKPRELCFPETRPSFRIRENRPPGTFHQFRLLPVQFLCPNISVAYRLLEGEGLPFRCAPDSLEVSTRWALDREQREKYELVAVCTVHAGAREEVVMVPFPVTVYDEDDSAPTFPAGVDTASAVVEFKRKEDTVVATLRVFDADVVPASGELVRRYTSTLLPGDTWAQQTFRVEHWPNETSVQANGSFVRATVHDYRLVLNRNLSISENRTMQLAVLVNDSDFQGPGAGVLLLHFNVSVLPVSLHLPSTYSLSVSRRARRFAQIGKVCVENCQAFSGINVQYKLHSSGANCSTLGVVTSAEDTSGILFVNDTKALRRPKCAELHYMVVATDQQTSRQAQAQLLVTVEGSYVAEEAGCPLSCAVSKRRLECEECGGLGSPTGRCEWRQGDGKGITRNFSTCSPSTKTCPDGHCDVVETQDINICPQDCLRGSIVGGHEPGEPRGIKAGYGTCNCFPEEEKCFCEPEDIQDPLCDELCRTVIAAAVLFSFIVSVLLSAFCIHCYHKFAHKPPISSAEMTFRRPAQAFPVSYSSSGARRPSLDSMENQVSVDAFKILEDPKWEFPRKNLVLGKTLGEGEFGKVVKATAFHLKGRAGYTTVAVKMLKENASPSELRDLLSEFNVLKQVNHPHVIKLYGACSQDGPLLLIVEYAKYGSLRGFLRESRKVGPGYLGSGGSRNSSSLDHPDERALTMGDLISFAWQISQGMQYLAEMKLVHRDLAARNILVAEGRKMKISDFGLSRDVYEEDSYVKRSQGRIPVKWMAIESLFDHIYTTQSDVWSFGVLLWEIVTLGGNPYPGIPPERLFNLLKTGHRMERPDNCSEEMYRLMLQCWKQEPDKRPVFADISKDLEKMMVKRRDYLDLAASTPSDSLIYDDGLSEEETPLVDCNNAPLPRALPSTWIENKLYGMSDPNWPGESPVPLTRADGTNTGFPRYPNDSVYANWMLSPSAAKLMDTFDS

[21] = molecular target: Vascular endothelial growth factor receptor 2 (Homo sapiens, UniProt P35968); assay: Inhibition of VEGFR2 (unknown origin)
[22] = molecular target: T1, Receptor-type tyrosine-protein kinase FLT3 (Homo sapiens, UniProt P36888); assay: Inhibition of FLT3 (unknown origin)
T1 sequence (P36888 whole entry): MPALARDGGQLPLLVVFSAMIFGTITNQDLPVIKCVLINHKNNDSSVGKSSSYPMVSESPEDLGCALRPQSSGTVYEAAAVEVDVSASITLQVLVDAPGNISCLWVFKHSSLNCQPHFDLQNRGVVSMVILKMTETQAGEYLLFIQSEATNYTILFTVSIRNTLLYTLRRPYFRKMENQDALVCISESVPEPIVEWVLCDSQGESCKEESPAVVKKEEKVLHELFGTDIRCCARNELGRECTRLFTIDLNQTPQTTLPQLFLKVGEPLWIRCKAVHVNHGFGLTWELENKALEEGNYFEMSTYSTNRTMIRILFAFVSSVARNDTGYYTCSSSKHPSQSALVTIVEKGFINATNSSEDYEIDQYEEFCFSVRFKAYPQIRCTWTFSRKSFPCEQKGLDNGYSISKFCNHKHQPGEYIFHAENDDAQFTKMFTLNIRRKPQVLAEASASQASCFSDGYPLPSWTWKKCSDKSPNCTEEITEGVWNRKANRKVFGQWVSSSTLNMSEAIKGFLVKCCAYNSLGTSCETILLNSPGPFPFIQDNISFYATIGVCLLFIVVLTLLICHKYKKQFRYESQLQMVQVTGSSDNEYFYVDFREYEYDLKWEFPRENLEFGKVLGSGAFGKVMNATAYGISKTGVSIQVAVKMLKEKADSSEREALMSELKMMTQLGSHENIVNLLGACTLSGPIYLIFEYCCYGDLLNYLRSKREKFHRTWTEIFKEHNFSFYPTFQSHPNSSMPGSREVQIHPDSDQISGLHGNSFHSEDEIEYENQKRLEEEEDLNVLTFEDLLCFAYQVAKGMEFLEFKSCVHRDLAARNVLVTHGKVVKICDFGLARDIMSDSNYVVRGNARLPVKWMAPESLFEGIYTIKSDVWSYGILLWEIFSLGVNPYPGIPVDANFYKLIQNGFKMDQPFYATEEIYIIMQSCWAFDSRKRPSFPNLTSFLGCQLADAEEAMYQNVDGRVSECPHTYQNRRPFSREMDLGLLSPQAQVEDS

## O=C(Nc1cnn2ccc(N3CCC[C@@H]3c3cc(F)ccc3F)nc12)N1CC[C@H](O)C1 [LAROTRECTINIB]
BaF3 [1]
  IC50: > 2000 nM
BaF3 [2]
  IC50: > 1000 nM
BaF3 [3]
  IC50: > 1000 nM
BaF3 [4]
  IC50: 9.3 nM
BaF3 [5]
  IC50: 29.7 nM
BaF3 [6]
  IC50: 15.4 nM
BaF3 [7]
  IC50: 284 nM

## CN1CCN(Cc2cc(NC(=O)[C@H]3CCN(c4ccc5ncc(-c6ccccn6)n5n4)C3)cc(C(F)(F)F)c2)CC1
[8]
  IC50: 35.2 nM
[9]
  IC50: 40.2 nM
[10]
  IC50: 50.8 nM
[11]
  IC50: 98.1 nM
BaF3 [4]
  IC50: 261 nM
BaF3 [5]
  IC50: 215 nM
BaF3 [6]
  IC50: 141 nM
BaF3 [7]
  IC50: 49.3 nM

## CN1CCN(Cc2ccc(NC(=O)[C@@H]3CCN(c4ccc5nccn5n4)C3)cc2C(F)(F)F)CC1
[8]
  IC50: 245 nM
[10]
  IC50: > 1000 nM
[11]
  IC50: 938 nM

## Cc1conc1NC(=O)N[C@@H]1CCN(c2ccc3ncc(-c4ccccn4)n3n2)C1
[8]
  IC50: 68.7 nM
[9]
  IC50: 36.8 nM
[11]
  IC50: 241 nM

## CN1CCN(Cc2ccc(NC(=O)[C@@H]3CCN(c4ccc5ncc(-c6cn[nH]c6)n5n4)C3)cc2C(F)(F)F)CC1
[8]
  IC50: 5.8 nM
[9]
  IC50: 7.8 nM
[10]
  IC50: 13.8 nM
[11]
  IC50: 33.8 nM
BaF3 [4]
  IC50: 296 nM
BaF3 [5]
  IC50: 522 nM
BaF3 [6]
  IC50: 195 nM
BaF3 [7]
  IC50: 27.3 nM

## Cc1cn(-c2cc(NC(=O)[C@@H]3CCN(c4ccc5ncc(-c6ccccn6)n5n4)C3)cc(C(F)(F)F)c2)cn1
[8]
  IC50: 13.1 nM
[9]
  IC50: 10.1 nM
[10]
  IC50: 5.9 nM
[11]
  IC50: 25.2 nM
BaF3 [4]
  IC50: 29.1 nM
BaF3 [5]
  IC50: 25.3 nM
BaF3 [6]
  IC50: 15.8 nM
BaF3 [7]
  IC50: 1.8 nM

## CN1CCN(Cc2ccc(NC(=O)[C@@H]3CCN(c4ccc5ncc(-c6cnn(CCO)c6)n5n4)C3)cc2C(F)(F)F)CC1
[8]
  IC50: 8.7 nM
[10]
  IC50: 21.6 nM
[11]
  IC50: 52.5 nM

## CN1CCN(Cc2ccc(NC(=O)[C@@H]3CCN(c4ccc5ncc(-c6ccccn6)n5n4)C3)cc2C(F)(F)F)CC1
BaF3 [12]
  viability at 0.05 µM: 43%
BaF3 [13]
  viability at 0.01 µM: 87.6%
BaF3 [14]
  viability at 0.002 µM: 89.8%
BaF3 [15]
  viability at 0.0004 µM: 89.1%
BaF3 [16]
  viability at 0.5 µM: 60.8%
BaF3 [17]
  viability at 0.1 µM: 78.1%
BaF3 [18]
  viability at 0.02 µM: 87.8%
BaF3 [19]
  viability at 0.004 µM: 59.9%
[20]
  IC50: 9.9 nM
[21]
  IC50: 71.1 nM
[22]
  IC50: 1.3 nM
[8]
  IC50: 3.3 nM
[9]
  IC50: 4.3 nM
[11]
  IC50: 9.4 nM

## CN1CCN(Cc2cc(NC(=O)[C@@H]3CCN(c4ccc5ncc(-c6ccccn6)n5n4)C3)cc(C(F)(F)F)c2)CC1
[8]
  IC50: 5.8 nM
[9]
  IC50: 8.1 nM
[10]
  IC50: 5.1 nM
[11]
  IC50: 16.5 nM
BaF3 [4]
  IC50: 61.5 nM
BaF3 [5]
  IC50: 51.8 nM
BaF3 [6]
  IC50: 26.4 nM
BaF3 [7]
  IC50: 9.3 nM

## CN1CCN(Cc2ccc(NC(=O)[C@@H]3CCN(c4ccc5ncc(-c6ccc(N)nc6)n5n4)C3)cc2C(F)(F)F)CC1
[8]
  IC50: 6 nM
[10]
  IC50: 9.6 nM
[11]
  IC50: 16.7 nM

## C[C@@H]1CCc2ncc(F)cc2[C@H]2CCCN2c2ccn3ncc(c3n2)C(=O)N1 [SELITRECTINIB]
BaF3 [4]
  IC50: 1.7 nM
BaF3 [5]
  IC50: 5.2 nM
BaF3 [6]
  IC50: 1.2 nM

## CN1CCN(Cc2ccc(NC(=O)[C@@H]3CCN(c4ccc5ncc(-c6cccnc6)n5n4)C3)cc2C(F)(F)F)CC1
[9]
  IC50: 8 nM
[10]
  IC50: 11.1 nM

## O=C(Nc1ccc(Cl)c(C(F)(F)F)c1)N[C@@H]1CCN(c2ccc3ncc(-c4ccccn4)n3n2)C1
[8]
  IC50: 45.7 nM
[9]
  IC50: 17 nM
[10]
  IC50: 81.6 nM
[11]
  IC50: 15.1 nM
BaF3 [4]
  IC50: 695 nM
BaF3 [5]
  IC50: 508 nM
BaF3 [6]
  IC50: 225 nM
BaF3 [7]
  IC50: 4.4 nM

## CN1CCN(Cc2ccc(NC(=O)[C@@H]3CCN(c4ccc5ncc(-c6cnn(C7CCOCC7)c6)n5n4)C3)cc2C(F)(F)F)CC1
[8]
  IC50: 13.2 nM
[10]
  IC50: 26.8 nM
[11]
  IC50: 35.5 nM
